# Patent publication US20120029002A1, “BENZIMIDAZOLE AND PYRAZOLOPYRIDINE DERIVATIVES FOR TREATING AND/OR PREVENTING CARDIOVASCULAR DISEASES” (BAYER SCHERING PHARMA AKTIENGESELLSCHAFT, priority 2009, published 2012)
# Tested on: aorta rings
# Assay: Vasorelaxant effect in vitro (phenylephrine-contracted rabbit aorta rings)
# Assay type: cell-based, Rabbits
# Conditions: Oryctolagus cuniculus; concentration necessary to reduce the height of the phenylephrine-induced contraction of rabbit aorta rings by 50%; organ bath, 37° C., 0.1% DMSO
# Experimental: B-1. Vasorelaxant effect in vitro
# Rabbits are stunned by a blow to the neck and exsanguinated. The aorta is removed, freed from adhering tissue and divided into rings of a width of 1.5 mm The rings are placed individually under an initial tension in 5 ml organ baths with Krebs-Henseleit solution which is at 37° C., is gassed with carbogen and has the following composition (in each case mM): NaCl: 119; KCl: 4.8; CaCl2×2 H2O: 1; MgSO4×7 H2O: 1.4; KH2PO4: 1.2; NaHCO3: 25; glucose: 10. The force of contraction is detected with Statham UC2 cells, amplified and digitized via A/D converters (DAS-1802 HC, Keithley Instruments, Munich) and recorded in parallel on chart recorders. Contractions are induced by cumulatively adding increasing concentrations of phenylephrine to the bath. After several control cycles, the substance to be investigated is added in each further run in increasing dosage, and the height of the contraction achieved is compared with the height of the contraction reached in the last preceding one. The concentration necessary to reduce the height of the control value by 50% is calculated from this (IC50 value). The standard application volume is […] the proportion of DMSO in the bath solution corresponds to 0.1%.
row,SMILES,IC50
1,"CC(C)OC(=O)Nc1c(N)nc(-n2nc(Sc3ccccc3F)c3ccccc32)nc1N [Example 12, Propan-2-yl (4,6-diamino-2-[3-[(2-fluorophenyl)sulphanyl]-1H-indazol-1-yl]pyrimidin-5-yl)-carbamate]",4.93 µM
2,"CC(C)OC(=O)Nc1c(N)nc(-n2nc(Sc3ccccc3F)c3ncccc32)nc1N [Example 9, Propan-2-yl (4,6-diamino-2-{3-[(2-fluorophenyl)sulphanyl]-1H-pyrazolo[4,3-b]pyridin-1-yl}pyrimidin-5-yl)carbamate]",1.43 µM
3,"Nc1nc(-n2nc(Sc3ccccc3F)c3ccccc32)nc(N)c1N [Example 3, 2-{3-[(2-Fluorophenyl)sulphanyl]-1H-indazol-1-yl}pyrimidine-4,5,6-triamine]",2.15 µM
4,"CC(C)OC(=O)Nc1c(N)nc(-n2nc(Oc3ccccc3F)c3ccccc32)nc1N [Example 19, Propan-2-yl{4,6-diamino-2-[3-(2-fluorophenoxy)-1H-indazol-1-yl]pyrimidin-5-yl}carbamate]",5.64 µM
